Assay results as given in patent publication US10709769B2, “Use of endostatin peptides for the treatment of fibrosis” (University of Pittsburgh—Of the Commonwealth System of …, priority 2009, dated 2020).

Experiments:
lysyl oxidase (LOX) [1] = assay: LOX immunohistochemistry in lung sections of bleomycin-treated mice; type: in vivo, mouse; details: lung sections of mice treated with bleomycin with or without E4
Excerpt: FIG. 12. […] Lung sections of mice treated with BLM with or without E4 were used in immunohistochemistry to detect LOX. The sections shown are control IgG, phosphate buffered saline, bleomycin and bleomycin followed by treatment with E4.
The results also evidenced that E4 exerts its anti-fibrotic effects via multiple pathways. E4 reduces levels of lysyl oxidase (LOX), and enzyme responsible for the cross-linking of collagen, elastin, and other extracellular matrix (ECM) molecules and thus the stabilization of the ECM.

normal lung fibroblasts = assay: α-SMA levels in TGF-β-stimulated normal lung fibroblasts; type: cell-based, human; details: peptide following TGF-β stimulation
Excerpt: FIGS. 1A-1F. ECM production in recombinant endostatin- and endostatin-derived peptide-treated fibroblasts in combination with TGF-β stimulation. A: FN and Col1α1 expression in human normal lung fibroblasts (NL) treated with vehicle (V), rE alone, or both with prior TGF-β stimulation. Proteins were detected western blot. GAPDH was used as a loading control for lysates. B: FN and Col1α1 expression of endostatin polypeptide-treated lung fibroblasts following TGF-β stimulation in primary pulmonary fibroblasts from a healthy control, a patient with SSc, and a patient with IPF. […] Intensity of bands was normalized to that of GAPDH and expressed as a ratio to Vehicle (V). […]
(§1) Cellular lysates were obtained from cultured fibroblasts as previously described (Pilewski et al., Am J Pathol 2005; 166:399-407). […] Cellular lysates were analyzed by western blot. Signals were detected following incubation with horseradish peroxidase-conjugated secondary antibody and chemiluminescence (Perkin Elmer Life Sciences, Inc., Boston, Mass.). The intensity of individual bands with expected molecular sizes was semi-quantitatively analyzed using the image/J® software available at on the internet (/rsb.info.nih.gov/ij/index.html), and normalized to individual GAPDH intensity. […]

[2] = test system: fibrotic lung fibroblasts from patients with IPF; assay: FN and Col1α1 in fibrotic lung fibroblasts without TGF-β stimulation, western blot; type: cell-based, human
Excerpt: FIGS. 1A-1F. ECM production in recombinant endostatin- and endostatin-derived peptide-treated fibroblasts in combination with TGF-β stimulation. A: FN and Col1α1 expression in human normal lung fibroblasts (NL) treated with vehicle (V), rE alone, or both with prior TGF-β stimulation. Proteins were detected western blot. GAPDH was used as a loading control for lysates. B: FN and Col1α1 expression of endostatin polypeptide-treated lung fibroblasts following TGF-β stimulation in primary pulmonary fibroblasts from a healthy control, a patient with SSc, and a patient with IPF. C: Graphical summary of FN and Col1α1 expression in lung fibroblasts obtained using fibroblasts from 4 healthy controls (NL), 3 patients with SSc, and 3 patients with IPF. Intensity of bands was normalized to that of GAPDH and expressed as a ratio to Vehicle (V). Paired-t test was used for statistical analysis. * P<0.04, ** P<0.01. D: Representative result of FN and Col1α1 levels in human skin fibroblasts obtained from a patient with morphea and a patient with SSc. E: Representative result of FN and Col1α1 expression in fibrotic fibroblasts obtained from a patients with IPF treated with V, 5 μg/ml of rE, or endostatin polypeptides alone (left). IPF fibroblasts were treated with different concentrations (5, 10, and 20 μg/ml) of E4. DMSO (V) was added in a volume equivalent to that in the lane corresponding to 20 μg/ml of E4 (right). […]
as §1

Egr-1 = Egr-1 western blot in primary human lung fibroblasts; type: cell-based; details: TGFβ followed by E4 after 60 minutes, harvested after 24 hours
Procedure: FIG. 16. E-4 reduces fibrosis in vitro by reducing levels of the master transcription factor Egr-1 in primary human lung fibroblasts. Reduction of Egr-1 levels parallels that of collagen, SMA, and fibronectin. Lane 1: vehicle (DMSO); Lane 2: E4; Lane 3: TGFβ, Lane 4 TGFβ followed by E4 after 60 minutes. The samples were harvested after 24 hours.
E4 also promotes the degradation of ECM components via induction and activation of matrix metalloprotease (MMP-2), an enzyme that degrades several ECM molecules including fibronectin and native and denatured collagens (FIG. 14). In addition, E4 increases levels of inhibitor of differentiation (ID)-1, a transcription factor that inhibits TGF-β effects (see FIG. 15). It was determined in a Western bloat analysis that E4 reduces the levels of the master switch transcription factor, Egr-1 (see FIG. 16) in primary human lung fibroblasts, treated and harvested after 24 hours. The reduction of Egr-1 levels parallels a reduction in collagen, SMA and fibronectin. Egr-1 is known to mediate the effects of several fibrotic agents (including TGF-β and bleomycin).

lysyl oxidase (LOX) [3] = assay: TGFβ-induced LOX production in primary human lung fibroblasts; type: cell-based; details: normal lung fibroblasts passage 4, TGF-β followed 30 minutes later by E4, 48 hrs
Procedure: FIG. 13. E4 reduces fibrosis in vitro by blocking TGFβ-induced LOX production in primary human lung fibroblasts. Normal lung fibroblasts in passage 4 were treated with vehicle, E4, TGFbeta, or TGFbeta followed 30 min. later by E4. Media conditioned by the fibroblasts were analyzed using Western blot analysis after 48 hour. Lane 1: Vehicle (DMSO); Lane 2: E-4; Lane 3: TGF 3; Lane 4: TGF 3 followed by E4.
E4-mediated reduction of LOX was detected also was detected in vitro. Normal lung fibroblasts in passage 4 were treated with vehicle, E4, TGFβ, or TGF-β followed 30 minutes later by E4 (FIG. 13). Media conditioned by the fibroblasts were analyzed using western blot analysis after 48 hrs.

[4] = no TGF-β, 5, 10 and 20 μg/ml, vs vehicle control

Q: “H-^133SYCETWRTEAPSATGQASSLLGGRLLGQSAASCHHAYIVLCIENSFMT^180-CONH2 (H-SYCETWRTEAPSATGQASSLLGGRLLGQSAASCHHAYIVLCIENSFMT-NH2; cysteine pairing not given here; UniProt P39060 1704-1751, looked up, fragment) [E4, amino acids 133-180 of human endostatin; differs from E3 by the presence of a carboxy-terminal amide]” was tested. Which “levels of lysyl oxidase (LOX)” value (lysyl oxidase (LOX) [1]) did it give?
A: reduces

Q: And the “TGF-β-induced α-SMA levels” value (normal lung fibroblasts)?
A: decreased

Q: What about the “FN and Col1α1 levels” value ([2]; no TGF-β stimulation, peptide alone) of the same substance?
A: decreased

Q: What about the Col1α1 levels [2, 4] of the same substance?
A: dose-dependently reduced

Q: What about the FN levels [2, 4] of the same substance?
A: modest effect

Q: What about the “levels of Egr-1” value (Egr-1) of the same substance?
A: reduces

Q: What about the “level of LOX (western blot of conditioned media)” value (lysyl oxidase (LOX) [3]) of the same substance?
A: significantly reduced
